{"source": "ChEMBL document CHEMBL1671626", "about": "“In vitro profiling of ceftaroline against a collection of recent bacterial clinical isolates from across the United States” (2008)", "format_in_all_cases": "functional", "key": {"[1]": {"tested_on": "Streptococcus pyogenes", "assay": "Antibacterial activity against erythromycin-susceptible Streptococcus pyogenes assessed as susceptible isolates by CLSI M7-A7 broth microdilution method"}, "[2]": {"tested_on": "Staphylococcus aureus", "assay": "Antibacterial activity against methicillin-susceptible Staphylococcus aureus by CLSI M7-A7 broth microdilution method"}, "[3]": {"tested_on": "Streptococcus viridans", "assay": "Antibacterial activity against penicillin-nonsusceptible Streptococcus viridans assessed as resistant isolates by CLSI M7-A7 broth microdilution method"}, "[4]": {"tested_on": "Staphylococcus aureus", "assay": "Antibacterial activity against methicillin-susceptible Staphylococcus aureus assessed as susceptible isolates by CLSI M7-A7 broth microdilution method"}, "[5]": {"tested_on": "Enterococcus faecalis", "assay": "Antibacterial activity against vancomycin-susceptible Enterococcus faecalis assessed as resistant isolates by CLSI M7-A7 broth microdilution method"}, "[6]": {"tested_on": "Enterococcus faecium", "assay": "Antibacterial activity against vancomycin-resistant Enterococcus faecium assessed as susceptible isolates by CLSI M7-A7 broth microdilution method"}, "[7]": {"tested_on": "Staphylococcus aureus", "assay": "Antibacterial activity against coagulase-negative and oxacillin-resistant Staphylococcus aureus by CLSI M7-A7 broth microdilution method"}, "[8]": {"tested_on": "Streptococcus agalactiae", "assay": "Antibacterial activity against erythromycin-susceptible Streptococcus agalactiae by CLSI M7-A7 broth microdilution method"}, "[9]": {"tested_on": "Enterococcus faecalis", "assay": "Antibacterial activity against vancomycin-resistant Enterococcus faecalis assessed as resistant isolates by CLSI M7-A7 broth microdilution method"}, "[10]": {"tested_on": "Streptococcus agalactiae", "assay": "Antibacterial activity against erythromycin-nonsusceptible Streptococcus agalactiae assessed as susceptible isolates by CLSI M7-A7 broth microdilution method"}, "[11]": {"tested_on": "Streptococcus viridans", "assay": "Antibacterial activity against penicillin-susceptible Streptococcus viridans assessed as susceptible isolates by CLSI M7-A7 broth microdilution method"}, "[12]": {"tested_on": "Streptococcus viridans", "assay": "Antibacterial activity against penicillin-nonsusceptible Streptococcus viridans by CLSI M7-A7 broth microdilution method"}, "[13]": {"tested_on": "Enterococcus faecium", "assay": "Antibacterial activity against vancomycin-resistant Enterococcus faecium by CLSI M7-A7 broth microdilution method"}, "[14]": {"tested_on": "Streptococcus agalactiae", "assay": "Antibacterial activity against erythromycin-susceptible Streptococcus agalactiae assessed as susceptible isolates by CLSI M7-A7 broth microdilution method"}, "[15]": {"tested_on": "Streptococcus pneumoniae", "assay": "Antibacterial activity against penicillin-susceptible Streptococcus pneumoniae by CLSI M7-A7 broth microdilution method"}, "[16]": {"tested_on": "Staphylococcus aureus", "assay": "Antibacterial activity against coagulase-negative and oxacillin-susceptible Staphylococcus aureus by CLSI M7-A7 broth microdilution method"}, "[17]": {"tested_on": "Enterococcus faecium", "assay": "Antibacterial activity against vancomycin-resistant Enterococcus faecium assessed as resistant isolates by CLSI M7-A7 broth microdilution method"}, "[18]": {"tested_on": "Staphylococcus aureus", "assay": "Antibacterial activity against methicillin-resistant Staphylococcus aureus by CLSI M7-A7 broth microdilution method"}, "[19]": {"tested_on": "Streptococcus pyogenes", "assay": "Antibacterial activity against erythromycin-susceptible Streptococcus pyogenes by CLSI M7-A7 broth microdilution method"}, "[20]": {"tested_on": "Staphylococcus aureus", "assay": "Antibacterial activity against coagulase-negative and oxacillin-susceptible Staphylococcus aureus assessed as susceptible isolates by CLSI M7-A7 broth microdilution method"}, "[21]": {"tested_on": "Enterococcus faecalis", "assay": "Antibacterial activity against vancomycin-susceptible Enterococcus faecalis assessed as susceptible isolates by CLSI M7-A7 broth microdilution method"}, "[22]": {"tested_on": "Streptococcus agalactiae", "assay": "Antibacterial activity against erythromycin-nonsusceptible Streptococcus agalactiae by CLSI M7-A7 broth microdilution method"}, "[23]": {"tested_on": "Streptococcus viridans", "assay": "Antibacterial activity against penicillin-nonsusceptible Streptococcus viridans assessed as susceptible isolates by CLSI M7-A7 broth microdilution method"}, "[24]": {"tested_on": "Streptococcus pyogenes", "assay": "Antibacterial activity against erythromycin-nonsusceptible Streptococcus pyogenes assessed as susceptible isolates by CLSI M7-A7 broth microdilution method"}, "[25]": {"tested_on": "Staphylococcus aureus", "assay": "Antibacterial activity against methicillin-resistant Staphylococcus aureus assessed as susceptible isolates by CLSI M7-A7 broth microdilution method"}, "[26]": {"tested_on": "Enterococcus faecalis", "assay": "Antibacterial activity against vancomycin-susceptible Enterococcus faecalis by CLSI M7-A7 broth microdilution method"}, "[27]": {"tested_on": "Streptococcus viridans", "assay": "Antibacterial activity against penicillin-susceptible Streptococcus viridans by CLSI M7-A7 broth microdilution method"}, "[28]": {"tested_on": "Streptococcus pneumoniae", "assay": "Antibacterial activity against penicillin-resistant Streptococcus pneumoniae by CLSI M7-A7 broth microdilution method"}, "[29]": {"tested_on": "Staphylococcus aureus", "assay": "Antibacterial activity against coagulase-negative and oxacillin-resistant Staphylococcus aureus assessed as susceptible isolates by CLSI M7-A7 broth microdilution method"}, "[30]": {"tested_on": "Streptococcus pyogenes", "assay": "Antibacterial activity against erythromycin-nonsusceptible Streptococcus pyogenes by CLSI M7-A7 broth microdilution method"}, "[31]": {"tested_on": "Enterococcus faecalis", "assay": "Antibacterial activity against vancomycin-resistant Enterococcus faecalis by CLSI M7-A7 broth microdilution method"}}, "data": [{"smiles": "CCCCCCCCCC(=O)N[C@@H](Cc1c[nH]c2ccccc12)C(=O)N[C@H](CC(N)=O)C(=O)N[C@@H](CC(=O)O)C(=O)N[C@@H]1C(=O)NCC(=O)N[C@@H](CCCN)C(=O)N[C@@H](CC(=O)O)C(=O)N[C@H](C)C(=O)N[C@@H](CC(=O)O)C(=O)NCC(=O)N[C@H](CO)C(=O)N[C@@H]([C@H](C)CC(=O)O)C(=O)N[C@@H](CC(=O)c2ccccc2N)C(=O)O[C@@H]1C", "values": [{"measurement": "Activity", "setting": "[1]", "value": 100, "unit": "%"}, {"measurement": "MIC50", "setting": "[2]", "value": 0.25, "unit": "µg/mL"}, {"measurement": "MIC90", "setting": "[2]", "value": 0.5, "unit": "µg/mL"}, {"measurement": "Activity", "setting": "[3]", "value": 0, "unit": "%"}, {"measurement": "Activity", "setting": "[4]", "value": 99.4, "unit": "%"}, {"measurement": "Activity", "setting": "[5]", "value": 0, "unit": "%"}, {"measurement": "Activity", "setting": "[6]", "value": 100, "unit": "%"}, {"measurement": "MIC50", "setting": "[7]", "value": 0.5, "unit": "µg/mL"}, {"measurement": "MIC90", "setting": "[7]", "value": 0.5, "unit": "µg/mL"}, {"measurement": "MIC50", "setting": "[8]", "value": 0.12, "unit": "µg/mL"}, {"measurement": "MIC90", "setting": "[8]", "value": 0.12, "unit": "µg/mL"}, {"measurement": "Activity", "setting": "[9]", "value": 0, "unit": "%"}, {"measurement": "Activity", "setting": "[10]", "value": 100, "unit": "%"}, {"measurement": "Activity", "setting": "[11]", "value": 100, "unit": "%"}, {"measurement": "MIC50", "setting": "[12]", "value": 0.25, "unit": "µg/mL"}, {"measurement": "MIC90", "setting": "[12]", "value": 0.5, "unit": "µg/mL"}, {"measurement": "MIC50", "setting": "[13]", "value": 2, "unit": "µg/mL"}, {"measurement": "MIC90", "setting": "[13]", "value": 4, "unit": "µg/mL"}, {"measurement": "Activity", "setting": "[14]", "value": 100, "unit": "%"}, {"measurement": "MIC50", "setting": "[15]", "value": 0.06, "unit": "µg/mL"}, {"measurement": "MIC90", "setting": "[15]", "value": 0.12, "unit": "µg/mL"}, {"measurement": "MIC50", "setting": "[16]", "value": 0.25, "unit": "µg/mL"}, {"measurement": "MIC90", "setting": "[16]", "value": 0.5, "unit": "µg/mL"}, {"measurement": "Activity", "setting": "[17]", "value": 0, "unit": "%"}, {"measurement": "MIC50", "setting": "[18]", "value": 0.25, "unit": "µg/mL"}, {"measurement": "MIC90", "setting": "[18]", "value": 0.5, "unit": "µg/mL"}, {"measurement": "MIC", "setting": "[19]", "value": "≤ 0.03", "unit": "µg/mL"}, {"measurement": "MIC50", "setting": "[19]", "value": "≤ 0.03", "unit": "µg/mL"}, {"measurement": "MIC90", "setting": "[19]", "value": 0.06, "unit": "µg/mL"}, {"measurement": "Activity", "setting": "[20]", "value": 100, "unit": "%"}, {"measurement": "Activity", "setting": "[21]", "value": 100, "unit": "%"}, {"measurement": "MIC50", "setting": "[22]", "value": 0.12, "unit": "µg/mL"}, {"measurement": "MIC90", "setting": "[22]", "value": 0.25, "unit": "µg/mL"}, {"measurement": "Activity", "setting": "[23]", "value": 100, "unit": "%"}, {"measurement": "Activity", "setting": "[24]", "value": 100, "unit": "%"}, {"measurement": "Activity", "setting": "[25]", "value": 99.2, "unit": "%"}, {"measurement": "MIC50", "setting": "[26]", "value": 1, "unit": "µg/mL"}, {"measurement": "MIC90", "setting": "[26]", "value": 1, "unit": "µg/mL"}, {"measurement": "MIC50", "setting": "[27]", "value": 0.25, "unit": "µg/mL"}, {"measurement": "MIC90", "setting": "[27]", "value": 0.5, "unit": "µg/mL"}, {"measurement": "MIC50", "setting": "[28]", "value": 0.06, "unit": "µg/mL"}, {"measurement": "MIC90", "setting": "[28]", "value": 0.12, "unit": "µg/mL"}, {"measurement": "Activity", "setting": "[29]", "value": 99.7, "unit": "%"}, {"measurement": "MIC", "setting": "[30]", "value": "≤ 0.03", "unit": "µg/mL"}, {"measurement": "MIC50", "setting": "[30]", "value": "≤ 0.03", "unit": "µg/mL"}, {"measurement": "MIC90", "setting": "[30]", "value": 0.25, "unit": "µg/mL"}, {"measurement": "MIC50", "setting": "[31]", "value": 0.5, "unit": "µg/mL"}, {"measurement": "MIC90", "setting": "[31]", "value": 1, "unit": "µg/mL"}]}]}
